Where two headings read alike, the source gives them in different places.
How the values were obtained:
[1] = Activity of compounds of Formula 1 (test not specified)
[2] = test system: DOPAC (3,4-dihydroxyphenylacetic acid) in the rat striatum; assay: In vivo neurochemistry: increase of DOPAC in the rat striatum; conditions: for ED50: read-out: ED50 DOPAC
Text: After the behavioural activity sessions, the rats were decapitated and their brains rapidly taken out and put on an ice-cold petri-dish. The limbic forebrain, the striatum, the frontal cortex and the remaining hemispheral parts of each rat were dissected and frozen. Each brain part was subsequently analyzed with respect to its content of monoamines and their metabolites.
The monoamine transmitter substances (NA (noradrenaline), DA (dopamine), 5-HT (serotonin)) as well as their amine (NM (normethanephrine), 3-MT (3-methoxytyramine)) and acid (DOPAC (3,4-dihydroxyphenylacetic acid), 5-HIAA (5-hydroxyindoleacetic acid), HVA (homovanillic acid)) metabolites are quantified in brain tissue homogenates by HPLC separations and electrochemical detection
The analytical method is based on two chromatographic separations dedicated for amines or acids. Two chromatographic systems share a common auto injector with a 10-port valve and two sample loops for simultaneous injection on the two systems. Both systems are equipped with a reverse phase column (Luna C18(2), dp […], 50*2mm i.d., Phenomenex) and electrochemical detection is accomplished at two potentials on glassy carbon electrodes (MF-1000, Bioanalytical Systems, Inc.). The column effluent is passed via a T-connection to the detection cell or to a waste outlet. This is accomplished by two solenoid valves, which block either the waste or detector outlet. By preventing the chromatographic front from reaching the detector, better detection conditions are achieved. […] Detection potentials relative to Ag/AgCl reference are 0.45 and 0.60V. […] Detection potentials relative to Ag/AgCl reference are 0.45 and 0.65V.
ED50 values for the increase of DOPAC in striatum are calculated by curve fitting.

drug-naive rats = assay: In vivo behaviour: locomotor activity in drug-naive rats; conditions: ± SEM
Text: (§1) Photobeam sensors were spaced 2.5 cm apart.

MK-801 pre-treated rats = assay: In vivo behaviour: locomotor activity in MK-801 pre-treated rats; conditions: MK-801 0.7 mg/kg i.p. 90 minutes before test compound, 30 to 60 minutes after administration, ± SEM
Text: as §1

[3] = Metabolic stability in rat liver microsomes; assay type: in vitro ADME; conditions: pH 7.4, 37 °C, NADPH, fraction of test compound eliminated after 15 minutes, read-out: turnover at 15 minutes
Method: The protein precipitation was then removed by rejecting the pellet after centrifugation at 10.000 g for 10 minutes (Heraeus, Biofuge fresco) in 4°C. The test compound was analysed using HPLC-MS (Hewlett-Packard 1100MSD Series) with a Zorbax SB-C18 column (2.1*150 mm, 5 µm) using 0.03% formic acid and acetonitrile as mobile phase (gradient) or a Zorbax Eclipse XDB-C18 (3*75 mm, 3.5µm) using 0.03% acetic acid and acetonitrile as mobile phase (gradient).

[4] = test system: levels of dopamine and norepinephrine in the cortex; assay: Microdialysis in awake and freely moving rats (cortex); assay type: in vivo; conditions: percent of control in relation to baseline
[5] = sc, estimated ED50 on increase of DOPAC in rat striatum after systemic administration (s.c.), maximal effects limited to 350 - 400% of control, range covers 95% of fits
[6] = drug-naive habituated rats, 11 µmol/kg, recorded between 30 and 60 minutes
[7] = drug-naive habituated rats, 33 µmol/kg, recorded between 30 and 60 minutes
[8] = drug-naive habituated rats, 100 µmol/kg, recorded between 30 and 60 minutes
[9] = drug-naive rats, 11 µmol/kg, recorded for 60 minutes
[10] = drug-naive rats, 33 µmol/kg, recorded for 60 minutes
[11] = drug-naive rats, 100 µmol/kg, recorded for 60 minutes

Question: For CCCN1CCC(c2cccc(S(C)(=O)=O)c2C(F)(F)F)CC1 [4-[3-(methylsulfonyl)-2-(trifluoromethyl)phenyl]-1-propylpiperidine], which activity [1] is on record?
Answer: Its activity is “inactive”.

Question: For CCCN1CCC(c2cccc(S(C)(=O)=O)c2F)CC1 [Example 1, 4-[2-FLUORO-3-(METHYLSULFONYL)PHENYL]-1-PROPYLPIPERIDINE], which ED50 [2, 5] is on record?
Answer: Its ED50 is 28 µmol/kg.

Question: And the Locomotor activity (drug-naive rats; [6])?
Answer: Its Locomotor activity is 1708 ± 922 counts/30 min.

Question: And the Locomotor activity (drug-naive rats; [7])?
Answer: Its Locomotor activity is 1337 ± 141 (P=0.001) counts/30 min.

Question: What about the Locomotor activity (drug-naive rats; [8]) of the same molecule?
Answer: The Locomotor activity was 1365 ± 460 (P=0.057) counts/30 min.

Question: What about the Locomotor activity (drug-naive rats; [9]) of the same molecule?
Answer: The Locomotor activity was 9500 ± 617 counts/60 min.

Question: What about the Locomotor activity (drug-naive rats; [10]) of the same molecule?
Answer: The Locomotor activity was 7371 ± 992 counts/60 min.

Question: And the Locomotor activity (drug-naive rats; [11])?
Answer: The Locomotor activity was 8103 ± 1047 counts/60 min.

Question: What about the “Locomotor activity, MK + example” value (MK-801 pre-treated rats; 33 µmol/kg) of the same molecule?
Answer: The value was 29636 ± 10019 (P=0.08) counts/30 min.

Question: What about the metabolised at 0.25 h [3] of the same molecule?
Answer: Its metabolised at 0.25 h is 3%.

Question: Which metabolised at 0.25 h [3] does the source give for CCN1CCC(c2cccc(S(C)(=O)=O)c2F)CC1 [Example 2, 1-ETHYL-4-[2-FLUORO-3-(METHYLSULFONYL)PHENYL]-PIPERIDINE] here?
Answer: Its metabolised at 0.25 h is 1%.

Question: What about the “levels of dopamine and norepinephrine in the cortex” value ([4]; Figure 2: 50 mol/kg s.c. (so in the source), pf. cortex) of the same molecule?
Answer: Its value is “elevate the levels of dopamine and norepinephrine in the cortex”.

Question: Which results are given for CCCN1CCC(c2cccc(S(C)(=O)=O)c2Cl)CC1 [Example 3, 4-[2-CHLORO-3-(METHYLSULFONYL)PHENYL]-1-PROPYLPIPERIDINE]?
Answer: ED50 [2, 5]: 9.9 µmol/kg; Locomotor activity (drug-naive rats; [9]): 6078 ± 605 counts/60 min; Locomotor activity (drug-naive rats; [10]): 3023 ± 246 counts/60 min; Locomotor activity (drug-naive rats; [11]): 1327 ± 299 counts/60 min; Locomotor activity, MK + example (MK-801 pre-treated rats; 100 µmol/kg (footnote 1)): 4911 ± 2953^1 (P=0.08) counts/30 min

Question: For CCCN1CCC(c2cccc(S(C)(=O)=O)c2C)CC1 [Example 4, 4-[2-METHYL-3-(METHYLSULFONYL)PHENYL]-1-PROPYLPIPERIDINE], which ED50 [2, 5] is on record?
Answer: Its ED50 is 58 µmol/kg.

Question: What about the Locomotor activity (drug-naive rats; [9]) of the same molecule?
Answer: Its Locomotor activity is 8972 ± 1124 counts/60 min.

Question: And the Locomotor activity (drug-naive rats; [10])?
Answer: Its Locomotor activity is 9023 ± 1415 counts/60 min.

Question: And the Locomotor activity (drug-naive rats; [11])?
Answer: Its Locomotor activity is 4473 ± 924 counts/60 min.

Question: What about the metabolised at 0.25 h [3] of the same molecule?
Answer: Its metabolised at 0.25 h is 4%.

Question: What does the source list for CCCN1CCC(c2cccc(C(F)(F)F)c2C#N)CC1 [Example 7, 2-(1-PROPYLPIPERIDIN-4-YL)-6-(TRIFLUOROMETHYL)BENZONITRILE]?
Answer: ED50 [2, 5]: 9.7 µmol/kg; Locomotor activity (drug-naive rats; [9]): 7008 ± 700 counts/60 min; Locomotor activity (drug-naive rats; [10]): 4694 ± 986 counts/60 min; Locomotor activity (drug-naive rats; [11]): 2829 ± 358 counts/60 min; metabolised at 0.25 h [3]: 22%

Question: With CCCN1CCC(c2cccc(C(F)(F)F)c2OC)CC1 [Example 8, 4-[2-METHOXY-3-(TRIFLUOROMETHYL)PHENYL]-1-PROPYLPIPERIDINE] as the molecule, how does the metabolised at 0.25 h [3] read?
Answer: Its metabolised at 0.25 h is 49%.

Question: Which ED50 ([2]; Rattus norvegicus) does the source give for CCCN1CCC(c2ccc(Cl)c(C(F)(F)F)c2)CC1 [Example 9 of WO01/46146, reference compound] here?
Answer: The ED50 was 40 µmol/kg.

Question: For CCCN1CCN(c2cccc(C(F)(F)F)c2F)CC1 [Example 9, 1-[2-FLUORO-3-(TRIFLUOROMETHYL)PHENYL]-4-PROPYLPIPERAZINE], which ED50 ([2]; Rattus norvegicus, sc) is on record?
Answer: The ED50 was 1.9 µmol/kg.

Question: What about the Locomotor activity (drug-naive rats; [9]) of the same molecule?
Answer: Its Locomotor activity is 3721 ± 242 counts/60 min.

Question: And the Locomotor activity (drug-naive rats; [10])?
Answer: Its Locomotor activity is 3518 ± 435 counts/60 min.

Question: And the Locomotor activity (drug-naive rats; [11])?
Answer: Its Locomotor activity is 4265 ± 758 counts/60 min.

Question: What about the “Locomotor activity, MK + example” value (MK-801 pre-treated rats; 11 µmol/kg (footnote 2)) of the same molecule?
Answer: Its value is 5916± 1918^2 (P=0.002) counts/30 min.

Question: For COCCN1CCN(c2cccc(C(F)(F)F)c2F)CC1 [Example 10, 1-[2-FLUORO-3-(TRIFLUOROMETHYL)PHENYL]-4-(2-METHOXYETHYL)PIPERAZINE], which ED50 ([2]; Rattus norvegicus, sc) is on record?
Answer: The ED50 was 6.2 µmol/kg.

Question: With CCCN1CCN(c2cccc(Cl)c2Cl)CC1 [Example 11, 1-(2,3-DICHLOROPHENYL)-4-PROPYLPIPERAZINE] as the molecule, how does the ED50 ([2]; Rattus norvegicus, sc) read?
Answer: The ED50 was 3.5 µmol/kg.

Question: What about the Locomotor activity (drug-naive rats; [9]) of the same molecule?
Answer: The Locomotor activity was 5149 ± 374 counts/60 min.

Question: And the Locomotor activity (drug-naive rats; [10])?
Answer: Its Locomotor activity is 4032 ± 828 counts/60 min.

Question: And the Locomotor activity (drug-naive rats; [11])?
Answer: Its Locomotor activity is 3299 ± 637 counts/60 min.

Question: With CCN1CCC(c2cccc(S(C)(=O)=O)c2)CC1 [Example 12 of WO01/46145, reference compound] as the molecule, how does the ED50 [2, 5] read?
Answer: Its ED50 is 154 µmol/kg.

Question: What does the source list for CCCN1CCC(c2cccc(C#N)c2C(F)(F)F)CC1 [Example 13, 3-(1-PROPYLPIPERIDIN-4-YL)-2-(TRIFLUORO-METHYL)BENZONITRILE]?
Answer: Locomotor activity (drug-naive rats; [6]): 960 ± 710 counts/30 min; Locomotor activity (drug-naive rats; [7]): 2870 ± 613 (P=0.008) counts/30 min; Locomotor activity (drug-naive rats; [8]): 4366 ± 1389 (P=0.030) counts/30 min

Question: With CCCN1CCN(c2cccc(C#N)c2C(F)(F)F)CC1 [Example 14, 3-(4-PROPYLP I PE RAZI N-1-YL)-2-(TRI FLUORO-M ETHYL)B ENZON ITRI LE] as the molecule, how does the ED50 ([2]; Rattus norvegicus, sc) read?
Answer: The ED50 was 2.4 µmol/kg.

Question: For CCCN1CCC(c2cccc(S(C)(=O)=O)c2C#N)CC1 [Example 15, 2-(METHYLSULFONYL)-6-(1-PROPYLPIPERIDIN-4-YL)BENZONITRILE], which ED50 [2, 5] is on record?
Answer: The ED50 was 28 µmol/kg.

Question: For CCCN1CCC(c2ccc(F)c(C(F)(F)F)c2)CC1 [Example 43 of WO01/46146, reference compound], which ED50 ([2]; estimated ED50 on increase of DOPAC in rat striatum, maximal effects set to 200% of control, range covers 95% of fits) is on record?
Answer: The ED50 was 35 µmol/kg.

Question: With CN1CCN2c3ncccc3Cc3ccccc3C2C1 (stereo not drawn) [mirtazapine, reference compound] as the molecule, how does the “extracellullar norepinephrine and dopamine in the cortex” value ([4]; Figure 1: Remeron 10mg/kg s.c., cortex) read?
Answer: Its value is “increase predominantly extracellullar norepinephrine and dopamine in the cortex”.

Question: For CCCN1CCC(c2cccc(C(F)(F)F)c2)CC1 [reference compound], which “ED50 DOPAC” value ([2]; estimated ED50 on increase of DOPAC in rat striatum after systemic administration (s.c.), maximal effects limited to 350 - 400% of control, range covers 95% of fits) is on record?
Answer: The value was 84 (47 - 110) µmol/kg.

— patent EP2204363A1, “New disubstituted phenylpiperidines/piperazines as modulators of dopamine neurotransmission” (NSAB, Filial af NeuroSearch Sweden AB, Sverige, priority 2004, dated 2005)
